According to publication PMC5666756, “Fascaplysin Exerts Anti-Cancer Effects through the Downregulation of Survivin and HIF-1α and Inhibition of VEGFR2 and TRKA” (International Journal of Molecular Sciences, 2017):

Tests used:
Assay type in all cases: biochemical
VEGFR3 = molecular target: T1, VEGFR3 (Homo sapiens, UniProt P35916); assay: high-throughput kinase screening assay (IC50, Figure S4)
T1 construct: gene FLT4

[1] = molecular target: T2, VEGFR2 (vascular endothelial growth factor receptor 2) (Homo sapiens, UniProt P35968); assay: radiometric kinase assay ([γ-33P]ATP), IC50 at several ATP concentrations, Lineweaver-Burk
T2 construct: gene KDR
T2 sequence (P35968 789-1356): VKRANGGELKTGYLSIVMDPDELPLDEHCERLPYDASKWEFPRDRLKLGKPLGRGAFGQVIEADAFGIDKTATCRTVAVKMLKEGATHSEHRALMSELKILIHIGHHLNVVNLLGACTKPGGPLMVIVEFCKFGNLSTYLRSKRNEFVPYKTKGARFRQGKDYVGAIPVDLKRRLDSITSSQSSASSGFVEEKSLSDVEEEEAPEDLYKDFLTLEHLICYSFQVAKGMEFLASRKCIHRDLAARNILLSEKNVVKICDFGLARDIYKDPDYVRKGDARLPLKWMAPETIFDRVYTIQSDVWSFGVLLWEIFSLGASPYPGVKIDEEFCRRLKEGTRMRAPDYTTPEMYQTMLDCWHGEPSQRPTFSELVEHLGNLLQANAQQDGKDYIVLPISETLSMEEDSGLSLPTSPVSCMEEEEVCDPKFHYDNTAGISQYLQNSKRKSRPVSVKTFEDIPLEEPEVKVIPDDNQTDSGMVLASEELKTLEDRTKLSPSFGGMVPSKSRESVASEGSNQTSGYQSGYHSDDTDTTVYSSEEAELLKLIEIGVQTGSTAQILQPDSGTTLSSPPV
Source text: radiometric kinase assay ([γ-33P]ATP), IC50 at several ATP concentrations, Lineweaver-Burk on VEGFR2 (vascular endothelial growth factor receptor 2) | fascaplysin is noncompetitive with respect to ATP against TRKA and VEGFR2

[2] = molecular target: T3, TRKA (tropomyosin-related kinase A) (Homo sapiens, UniProt P04629); assay: as above
T3 construct: gene NTRK1; recombinant human cytoplasmic domain (aa 441–796), C-terminal His-tagged
T3 sequence (P04629 441-796): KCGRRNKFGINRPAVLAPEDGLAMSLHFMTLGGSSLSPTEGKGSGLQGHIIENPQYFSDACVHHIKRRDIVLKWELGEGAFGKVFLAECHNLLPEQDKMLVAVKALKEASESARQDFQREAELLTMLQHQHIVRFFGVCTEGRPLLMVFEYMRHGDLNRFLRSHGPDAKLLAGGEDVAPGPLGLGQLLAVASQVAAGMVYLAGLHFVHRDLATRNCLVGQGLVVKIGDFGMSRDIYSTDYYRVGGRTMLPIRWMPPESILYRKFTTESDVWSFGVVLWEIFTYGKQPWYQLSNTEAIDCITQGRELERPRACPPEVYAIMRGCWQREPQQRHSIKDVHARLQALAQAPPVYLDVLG

Measured: IC50

T1 sequence (P35916 25-1363): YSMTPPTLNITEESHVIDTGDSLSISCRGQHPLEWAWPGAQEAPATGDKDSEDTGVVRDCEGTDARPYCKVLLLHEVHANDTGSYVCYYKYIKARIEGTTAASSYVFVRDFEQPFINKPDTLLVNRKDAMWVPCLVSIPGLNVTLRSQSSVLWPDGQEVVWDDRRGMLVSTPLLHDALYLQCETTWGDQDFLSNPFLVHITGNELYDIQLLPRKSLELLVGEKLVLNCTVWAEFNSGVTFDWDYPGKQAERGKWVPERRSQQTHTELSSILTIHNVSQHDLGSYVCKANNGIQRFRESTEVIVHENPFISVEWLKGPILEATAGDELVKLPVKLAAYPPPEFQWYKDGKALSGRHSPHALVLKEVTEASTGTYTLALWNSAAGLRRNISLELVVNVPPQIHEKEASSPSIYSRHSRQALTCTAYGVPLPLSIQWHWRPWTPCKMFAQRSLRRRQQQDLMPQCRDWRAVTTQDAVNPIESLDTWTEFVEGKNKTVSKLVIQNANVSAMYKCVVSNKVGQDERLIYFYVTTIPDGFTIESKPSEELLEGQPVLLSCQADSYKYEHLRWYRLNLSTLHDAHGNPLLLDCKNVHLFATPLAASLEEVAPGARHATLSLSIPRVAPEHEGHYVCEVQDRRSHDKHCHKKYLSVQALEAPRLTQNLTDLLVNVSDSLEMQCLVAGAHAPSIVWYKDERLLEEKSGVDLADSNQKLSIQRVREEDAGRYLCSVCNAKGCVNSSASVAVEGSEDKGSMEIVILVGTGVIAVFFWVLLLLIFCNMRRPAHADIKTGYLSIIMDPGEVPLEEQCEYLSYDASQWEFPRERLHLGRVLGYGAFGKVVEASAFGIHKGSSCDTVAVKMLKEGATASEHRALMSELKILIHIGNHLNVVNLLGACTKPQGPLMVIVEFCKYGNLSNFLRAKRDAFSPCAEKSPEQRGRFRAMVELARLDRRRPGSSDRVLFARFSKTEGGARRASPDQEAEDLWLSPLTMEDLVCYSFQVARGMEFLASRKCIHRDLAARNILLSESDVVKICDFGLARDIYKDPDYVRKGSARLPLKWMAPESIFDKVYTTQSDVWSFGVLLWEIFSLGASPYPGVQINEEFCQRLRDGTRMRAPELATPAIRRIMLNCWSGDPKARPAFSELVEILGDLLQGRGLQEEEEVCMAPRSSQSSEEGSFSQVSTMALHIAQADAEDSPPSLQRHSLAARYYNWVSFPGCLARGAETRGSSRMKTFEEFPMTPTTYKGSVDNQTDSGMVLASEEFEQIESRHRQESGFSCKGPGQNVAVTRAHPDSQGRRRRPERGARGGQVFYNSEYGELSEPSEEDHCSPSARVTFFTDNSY

O=C1c2ccccc2-[n+]2ccc3c([nH]c4ccccc43)c21 [Fascaplysin]
2 to 3 µM: all assays above
